From US20240254089A1, “MODULATORS OF MAS-RELATED G-PROTEIN RECEPTOR X4 AND RELATED PRODUCTS AND METHODS” (ESCIENT PHARMACEUTICALS, INC., priority 2020, published 2024)

Biological target: T1, human MRGPR X4 (Homo sapiens, UniProt Q96LA9)
T1 construct: expressed in transfected cells
Assay: MRGPR X4 antagonist activity, IP-One Gq HTRF assay in stably transfected HEK cells
Format: cell-based
Conditions: not given
Summary of the method: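 Human MRGPR X4-expressing HEK cells, 20,000/well, were incubated with compound (10-point curve, 10 uM top, 1:3 dilutions) plus agonist (10 μM bilirubin, 20 μM deoxycholic acid or 100 μM conjugated bilirubin) in Tris/NaCl/LiCl buffer, pH 8, for 1 h at 37 °C, then 30 min at room temperature. IP-1 was read by HTRF, and IC50 was taken from the HTRF ratio.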

T1 sequence (Q96LA9 whole entry): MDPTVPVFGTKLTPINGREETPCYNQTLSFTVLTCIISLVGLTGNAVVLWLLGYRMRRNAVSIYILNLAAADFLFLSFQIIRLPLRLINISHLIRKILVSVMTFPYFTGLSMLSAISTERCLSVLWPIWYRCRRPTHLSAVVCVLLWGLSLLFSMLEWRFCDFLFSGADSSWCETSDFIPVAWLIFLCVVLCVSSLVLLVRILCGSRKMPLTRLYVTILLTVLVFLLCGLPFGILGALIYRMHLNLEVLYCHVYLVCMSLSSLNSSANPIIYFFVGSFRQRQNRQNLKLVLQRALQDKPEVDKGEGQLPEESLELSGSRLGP

SMILES | IC50 [nM]
O=C(Nc1cnc2ccccc2c1)c1nn(Cc2ccc(Cl)cc2)c2ccccc12 [Compound 134] | 1000 to 2500
O=C(NCCc1ccc(C(F)(F)F)nc1)c1nn(Cc2ccc(Cl)cc2)c2ccccc12 [Compound 86] | 501 to 1000
Cc1cc(Cn2nc(C(=O)NCCc3nnc4ccccn34)c3ccccc32)ccc1Cl [Compound 555] | < 100
O=C(Cn1nc(C(=O)NCCc2nnc3ccccn23)c2ccccc21)c1ccc(F)c(F)c1 [Compound 517] | 1000 to 2500
N#Cc1ccc(Cn2nc(C(=O)NCCc3cccnc3)c3ccccc32)cc1 [Compound 72] | 501 to 1000
O=C(NCc1ccc2ccccc2n1)c1nn(Cc2ccc(Cl)cc2)c2ccccc12 [Compound 423] | > 2500
O=C(NCCc1nc2c(s1)CCCC2)c1nn(Cc2ccc(OC(F)F)cc2)c2ccccc12 [Compound 82] | 501 to 1000
O=C(NCc1cn2cccnc2n1)c1nn(Cc2ccc(Cl)cc2)c2ccccc12 [Compound 368] | 100 to 500
N#Cc1ccccc1Cn1cc(C(=O)NCCc2ccc(Cl)c(F)c2)c2ccccc21 [Compound 235] | > 2500
CC(=O)Nc1ccc(CNC(=O)c2nn(Cc3ccc(Cl)cc3)c3ccccc23)cc1 [Compound 374] | > 2500
O=C(CNC(=O)c1nn(Cc2ccc(Cl)cc2)c2ccccc12)c1ccc(F)cc1F [Compound 380] | > 2500
O=C(NCCc1nc2c(s1)CCCC2)c1nn(Cc2ccc(Cl)c(F)c2)c2ccccc12 [Compound 54] | 100 to 500
COc1ccnc(CCNC(=O)c2nn(Cc3ccc(Cl)cc3)c3ccccc23)c1 [Compound 62] | 100 to 500
N#Cc1ccc(Cn2cc(C(=O)NCCc3cccnc3)c3ccccc32)cc1 [Compound 193] | 501 to 1000
O=C(NCCc1nnc2ccccn12)c1nn(Cc2cc(F)cc(C(F)(F)F)c2)c2ccccc12 [Compound 509] | 100 to 500
O=C(CNC(=O)c1nn(Cc2ccc(Cl)cc2)c2ccccc12)c1ccc(O)cc1 [Compound 382] | 501 to 1000
O=C(NCCc1c[nH]c2ccc(Cl)cc12)c1nn(Cc2ccc(Cl)cc2)c2ccccc12 [Compound 396] | > 2500
O=C(NCc1ccc(-n2cccn2)nc1)c1nn(Cc2ccc(Cl)cc2)c2ccccc12 [Compound 369] | > 2500
Cc1ccc(Cn2nc(C(=O)NCCc3cccnc3)c3c(F)cccc32)cc1 [Compound 70] | 501 to 1000
Cc1cccc(S(=O)(=O)NC(=O)c2nn(Cc3ccc(OC(F)F)cc3)c3ccccc23)c1 [Compound 270] | 1000 to 2500
O=C(NCCc1nnc2ccccn12)c1nn(Cc2ccc3ncccc3c2)c2ccccc12 [Compound 458] | 501 to 1000
COc1cccc(CCNC(=O)c2cn(Cc3ccc(Cl)cc3)c3ccccc23)c1 [Compound 164] | 100 to 500
O=C(NCc1ccc2ncccc2c1)c1nn(Cc2ccc(Cl)cc2)c2ccccc12 [Compound 372] | > 2500
CCc1ccc(Cn2nc(C(=O)NCCc3nnc4ccccn34)c3ccccc32)cc1 [Compound 447] | 100 to 500
O=C(NCCc1nnc2ccccn12)c1nn(Cc2ccc(-n3cccn3)cc2)c2ccccc12 [Compound 461] | 1000 to 2500
Cn1c(Cn2nc(C(=O)NCCc3nnc4ccccn34)c3ccccc32)nc2cc(F)ccc21 [Compound 574] | 100 to 500
COc1ccc(Cn2nc(C(=O)NCCc3nnc4ccccn34)c3ccccc32)nc1 [Compound 448] | > 2500

SMILES | IC50 [nM]
O=C(NCCc1cccs1)c1nn(Cc2ccc(Cl)cc2)c2ccccc12 [Compound 350] | 1000 to 2500
Cc1ccc(Cn2nc(C(=O)NCCc3noc(C(C)C)n3)c3ccccc32)cc1 [Compound 85] | 501 to 1000
O=C(CNC(=O)c1nn(Cc2ccc(Cl)cc2)c2ccccc12)NCC(F)F [Compound 418] | > 2500
Cc1ncsc1CCNC(=O)c1nn(Cc2ccc(Cl)cc2)c2ccccc12 [Compound 367] | 100 to 500
Cc1cnc(CCNC(=O)c2cn(Cc3ccc(Cl)cc3)c3ccccc23)nc1 [Compound 207] | 1000 to 2500
O=C(NCCc1nnc2ccccn12)c1nn(Cc2ccc3ccccc3n2)c2ccccc12 [Compound 412] | 100 to 500
O=C(NCCN1CCCCC1=O)c1nn(Cc2ccc(Cl)cc2)c2ccccc12 [Compound 419] | 100 to 500
Cc1ccc(Cn2nc(C(=O)NCCc3nnc4n3CCCCC4)c3ccccc32)cc1 [Compound 13] | < 100
O=C(NCCc1nnc2ccccn12)c1nn(Cc2nc3ccc(C(F)(F)F)cc3[nH]2)c2ccccc12 [Compound 522] | 501 to 1000
O=C(NCc1cccc(F)c1F)c1nn(Cc2ccc(Cl)cc2)c2ccccc12 [Compound 360] | > 2500
O=C(NCCc1cccnc1)c1cn(Cc2ccc(OC(F)(F)F)cc2)c2ccccc12 [Compound 173] | 100 to 500
Cc1cccn2cc(CNC(=O)c3nn(Cc4ccc(Cl)cc4)c4ccccc34)nc12 [Compound 421] | 501 to 1000
COc1ccc(Cn2cc(C(=O)NCCc3cccnc3)c3ccccc32)cc1 [Compound 176] | 100 to 500
COc1ccc2c(C(=O)NCCc3nnc4ccccn34)nn(Cc3ccc(Cl)cc3)c2c1 [Compound 563] | < 100
O=C(NCc1nc2ccccc2[nH]1)c1nn(Cc2ccc(Cl)cc2)c2ccccc12 [Compound 352] | 100 to 500
O=C(NS(=O)(=O)c1ccc(F)cc1)c1nn(Cc2ccc(OC(F)F)cc2)c2ccccc12 [Compound 266] | 501 to 1000
N#Cc1ccccc1Cn1nc(C(=O)NCCc2nnc3ccccn23)c2ccccc21 [Compound 409] | 1000 to 2500
O=C(NCCc1nnc2ccccn12)c1nn(Cc2nc3ccccc3[nH]2)c2ccccc12 [Compound 521] | 1000 to 2500
Cn1ccc(CNC(=O)c2nn(Cc3ccc(Cl)cc3)c3ccccc23)cc1=O [Compound 392] | 1000 to 2500
O=C(NCCc1ccc(Cl)c(F)c1)c1cn(Cc2ccc(F)cc2)c2ccccc12 [Compound 198] | 501 to 1000
O=C(NCCc1nnc2ccccn12)c1nn(Cc2cnc(C(F)(F)F)s2)c2ccccc12 [Compound 501] | 100 to 500
O=C(NCCc1nnc2n1CCCCC2)c1nn(Cc2ccc(OC(F)F)cc2)c2ccccc12 [Compound 24] | < 100
O=C(NCCc1nc2c(s1)CCCC2)c1nn(Cc2cccc(F)c2)c2ccccc12 [Compound 81] | 501 to 1000
Cc1cccn2c(CCNC(=O)c3nn(Cc4ccc(Cl)cc4)c4ccccc34)nnc12 [Compound 4] | < 100
O=C(NCCc1ccccc1OC(F)(F)F)c1cn(Cc2ccc(Cl)cc2)c2ccccc12 [Compound 194] | 501 to 1000
Cc1ccc2c(c1)nc(Cn1nc(C(=O)NCCc3nnc4ccccn34)c3ccccc31)n2C [Compound 570] | > 2500

Same assay, conditions: versus 20 μM deoxycholic acid agonist; HEK cells expressing human MRGPR X4; read-out: MRGPRX4 Antagonist Activity

SMILES | IC50 [nM]
Cc1ccc(S(=O)(=O)NC(=O)c2nn(Cc3ccc(OC(F)F)cc3)c3ccccc23)cc1C [Compound 295] | 1000 to 2500
CC(C)c1ccccc1S(=O)(=O)NC(=O)c1nn(Cc2ccc(Cl)cc2)c2ccccc12 [Compound 302] | > 2500
O=C(NCCn1cc(CN2CCS(=O)(=O)CC2)nn1)c1nn(Cc2ccc(Cl)cc2)c2ccccc12 [Compound 147] | > 2500
Cc1nccn1-c1ccc(Cn2nc(C(=O)NCCc3nnc4ccccn34)c3ccccc32)cc1 [Compound 450] | > 2500
O=C(CCc1cccnc1)Nc1nn(Cc2ccc(Cl)cc2)c2ccccc12 [Compound 148, N-(1-(4-chlorobenzyl)-1H-indazol-3-yl)-3-(pyridin-3-yl)-propanamide] | 1000 to 2500
O=C(NCCc1nnc2ccccn12)c1nn(CCc2ccc(F)cc2F)c2ccccc12 [Compound 471] | > 2500
